From patent publication US20190343796A1, “COMPOSITION FOR EXTERNAL USE” (FUJIFILM Toyama Chemical Co., Ltd., priority 2016, published 2019)

Experiment: Solubility of maleate of compound A in representative solvents
Assay type: physicochemical
From the text: Among these solvents, a solvent having a high solubility of compound A and a salt thereof is preferred.

- Solubility of maleate of compound A at 25° C. (Benzyl alcohol, 25° C.): 35 g/100 g of solvent
- Solubility of maleate of compound A at 25° C. (Butylene glycol, 25° C.): 5 g/100 g of solvent
- Solubility of maleate of compound A at 25° C. (Dimethyl sulfoxide, 25° C.): >50 g/100 g of solvent
- Solubility of maleate of compound A at 25° C. (Dipropylene glycol, 25° C.): 8 g/100 g of solvent
- Solubility of maleate of compound A at 25° C. (Ethanol, 25° C.): 3 g/100 g of solvent
- Solubility of maleate of compound A at 25° C. (N-methyl-2-pyrrolidone, 25° C.): >50 g/100 g of solvent
- Solubility of maleate of compound A at 25° C. (Polyethylene glycol 200, 25° C.): 10 g/100 g of solvent
- Solubility of maleate of compound A at 25° C. (Polyethylene glycol 400, 25° C.): 16 g/100 g of solvent
- Solubility of maleate of compound A at 25° C. (Propylene glycol, 25° C.): 10 g/100 g of solvent
Structure (SMILES): OC1CN(CCCOCCc2ccc3sccc3c2)C1 [maleate of compound A, 1-(3-(2-(1-benzothiophen-5-yl)ethoxy)propyl)azetidin-3-ol]
